Data reported in patent US20230345940A1, “INSECTICIDE” (Western Sydney University, priority 2020, published 2023).
Several values for one entry are separate records, joined by “and”; a condition that tells them apart may be missing. Equal entries are not always repeated.

How the values were obtained:
[1] = tested on: adult foraging workers of Apis mellifera; experiment: Acute toxicity to honey bees, Potter Spray Tower; assay type: in vivo; details: for Knockdown (K), no. of bees / Mortality (D), no. of bees: n = 10, extract 1.0% w/v, bifenthrin 0.05% w/v
Description: The laboratory-based bioassay was performed to assess the acute toxicity of the extracts against adult foraging workers of Apis mellifera. 3 mL aliquots of P. jaceoides extract were applied at 1.0% a.i. w/v via a Potter Spray Tower, using the methodology previously described for the preparation and application of this plant extract to test insects.
Bifenthrin (CAS No 82657-04-3) 97.0% technical (Batch 50118) was sourced from Dr. Ehrenstorfer GmbH D-86190 Augsburg, Germany. A 0.05% w/v a.i. concentration was prepared by dissolving 0.013 g bifenthrin in 1 mL acetone, sonicating for 5 min and then diluted in a 25 mL volumetric flask with 200 ppm Triton X-100 in distilled water. It was applied using a 3 mL aliquot of the 0.05% a.i via a Potter Spray Tower; this concentration was based on recommended label rate in cotton. The control comprised 5 mL acetone and water-Triton X-100 mixture only; two controls were conducted.
Apis mellifera foraging workers for bioassay were collected from a strong, healthy hive at Western Sydney University apiary, at Richmond NSW, Australia, by blocking the hive entrance for 1 min and collecting foragers with a sweep net.
They were immediately transferred to a mesh cage (25×33×33 cm) and maintained in the laboratory at 24° C., where they were fed ad libidum sugar:water 1:1 w/v from cotton wool placed on the mesh at the top of the cage until bioassay, which was undertaken within 1 h of bee collection. Bees for bioassay were randomly collected from the cage using a 120 mL plastic specimen tube, and anaesthetised with medical grade CO2 for 30 s, then ten bees were placed on a 90 mm diameter Petri dish lined with filter paper. The dish with the bees was placed on the Potter Spray Tower stage, and the respective treatment applied, commencing with the control and finishing with bifenthrin treatment.
Immediately after treatment, the treated bees were gently transferred to 250 mL glass beakers, fine nylon mesh was fitted to the top with a rubber band, and the bees fed were sugar:water as above and maintained at 26° C. in very low light. Bee activity was regularly observed and recorded, at 10 min intervals until 420 min (viz. 7 HAT), then less frequently until 48 HAT. By this time, there was bee mortality in both controls, so the investigation was terminated. Data recorded were signs of intoxication, knockdown (K) and mortality (D).

[2] = tested on: Aphis gossypii adults and nymphs; experiment: Field trial on cotton crop; assay type: in vivo; details: extract at 1.0%, clothianidin at 125 mL/ha
Description: A trial was conducted on an irrigated commercial Bollgard II cotton crops (Sicot 74 variety) at the Australian Cotton Research Institute (ACM) in Narrabri NSW, Australia. The cotton crop used for the study comprised mature plants close to cut-out and were contaminated with Aphis gossypii from infested leaves collected from a nearby commercial cotton field at Yarral, Narrabri NSW, Australia.
[…] Each replicated plot measured 2 m (2 rows) wide and 1 m long with 2 m (rows) buffer between replicated plots. Three plants in each treatment replicate with terminals infested with aphids were randomly selected and terminals tagged for pre- and post-treatment assessments.
The control was sprayed with 100 ppm Triton-X 100 in water only.
Foliar application of each treatment was performed, applying the control first, then the plant extract, and finally the industry standard. Each treatment was applied to run-off using a small hand-held pressure sprayer fitted with flat fan nozzles delivering a droplet size of 200 μm (equivalent to field application of 100 L/ha). The decision to apply the treatment was made based on the IPM Guidelines and CottonLogic recommended economic threshold of 50% of plant terminals infested.
The number of A. gossypii and beneficial species (mainly predatory insects) were assessed by visually counting A. gossypii adults and nymphs and beneficials on the upper and undersides of leaves from the 3-4 nodes below the tagged plant terminals. Pre-treatment counts were made 24 h before treatment and post treatment counts on 1, 2, 5, 6, 7, 8, 9, 12 and 14 days after treatment (DAT).
The data for both A. gossypii adults and nymphs as well as predatory insects were each initially expressed as numbers per terminal. Data were calculated as percentage reduction of population compared to the pre-treatment count.
Means of data on population reduction were compared using one-way ANOVA, after confirming normality, using SPSS v21. Significance was normally set at 5% (α=0.05), and when there was significance, means were separated using Duncan's Multiple range test.

Cc1c(COC(=O)[C@@H]2[C@H](/C=C(\Cl)C(F)(F)F)C2(C)C)cccc1-c1ccccc1 (racemic) [Bifenthrin]
knockdown commenced ([1]; 0.05% w/v a.i.): 10 MAT
mortality commenced ([1]; 0.05% w/v a.i.): 90 MAT
time of 50% bee knockdown ([1]; 0.05% w/v a.i.): 45-50 MAT
time of 50% mortality ([1]; 0.05% w/v a.i.): 240 MAT
Knockdown (K), no. of bees ([1]; 10 min): 1K
Knockdown (K), no. of bees ([1]; 20 min): 1K
Knockdown (K), no. of bees ([1]; 30 min): 2K
Knockdown (K), no. of bees ([1]; 40 min): 3K
Knockdown (K), no. of bees ([1]; 45 min): 4K
Knockdown (K), no. of bees ([1]; 50 min): 6K
Knockdown (K), no. of bees ([1]; 60 min): 6K
Knockdown (K), no. of bees ([1]; 70 min): 6K
Knockdown (K), no. of bees ([1]; 80 min): 6K
Knockdown (K), no. of bees ([1]; 90 min): 5
Mortality (D), no. of bees ([1]; 90 min): 1
Knockdown (K), no. of bees ([1]; 100 min): 3K, 3D
Mortality (D), no. of bees ([1]; 100 min): 3K, 3D
Knockdown (K), no. of bees ([1]; 110 min): 4K,
Knockdown (K), no. of bees ([1]; 120 min): 4K,
Knockdown (K), no. of bees ([1]; 130 min): 4K,
Knockdown (K), no. of bees ([1]; 140 min): 3
Mortality (D), no. of bees ([1]; 140 min): 4
Knockdown (K), no. of bees ([1]; 150 min): 3
Mortality (D), no. of bees ([1]; 150 min): 4
Knockdown (K), no. of bees ([1]; 160 min): 4K, 4D
Mortality (D), no. of bees ([1]; 160 min): 4K, 4D
Knockdown (K), no. of bees ([1]; 170 min): 4K, 4D
Mortality (D), no. of bees ([1]; 170 min): 4K, 4D
Knockdown (K), no. of bees ([1]; 180 min): 4K, 4D
Mortality (D), no. of bees ([1]; 180 min): 4K, 4D
Knockdown (K), no. of bees ([1]; 190 min): 4K, 4D
Mortality (D), no. of bees ([1]; 190 min): 4K, 4D
Knockdown (K), no. of bees ([1]; 200 min): 4K, 4D
Mortality (D), no. of bees ([1]; 200 min): 4K, 4D
Knockdown (K), no. of bees ([1]; 210 min): 4K, 4D
Mortality (D), no. of bees ([1]; 210 min): 4K, 4D
Knockdown (K), no. of bees ([1]; 220 min): 5
Mortality (D), no. of bees ([1]; 220 min): 4
Knockdown (K), no. of bees ([1]; 230 min): 5
Mortality (D), no. of bees ([1]; 230 min): 4
Knockdown (K), no. of bees ([1]; 240 min): 4
Mortality (D), no. of bees ([1]; 240 min): 5
Knockdown (K), no. of bees ([1]; 250 min): 3
Mortality (D), no. of bees ([1]; 250 min): 6
Knockdown (K), no. of bees ([1]; 260 min): 3
Mortality (D), no. of bees ([1]; 260 min): 6
Knockdown (K), no. of bees ([1]; 270 min): 3
Mortality (D), no. of bees ([1]; 270 min): 6
Knockdown (K), no. of bees ([1]; 280 min): 3
Mortality (D), no. of bees ([1]; 280 min): 6
Knockdown (K), no. of bees ([1]; 290 min): 3
Mortality (D), no. of bees ([1]; 290 min): 6
Knockdown (K), no. of bees ([1]; 300 min): 3
Mortality (D), no. of bees ([1]; 300 min): 6
Knockdown (K), no. of bees ([1]; 310 min): 3
Mortality (D), no. of bees ([1]; 310 min): 6
Knockdown (K), no. of bees ([1]; 320 min): 3
Mortality (D), no. of bees ([1]; 320 min): 6
Knockdown (K), no. of bees ([1]; 330 min): 1
Mortality (D), no. of bees ([1]; 330 min): 8
Knockdown (K), no. of bees ([1]; 340 min): 1
Mortality (D), no. of bees ([1]; 340 min): 8
Knockdown (K), no. of bees ([1]; 350 min): 1
Mortality (D), no. of bees ([1]; 350 min): 8
Knockdown (K), no. of bees ([1]; 360 min): 1
Mortality (D), no. of bees ([1]; 360 min): 8
Knockdown (K), no. of bees ([1]; 370 min): 1
Mortality (D), no. of bees ([1]; 370 min): 8
Knockdown (K), no. of bees ([1]; 380 min): 1
Mortality (D), no. of bees ([1]; 380 min): 8
Knockdown (K), no. of bees ([1]; 390 min): 0
Mortality (D), no. of bees ([1]; 390 min): 9
Knockdown (K), no. of bees ([1]; 400 min): 0
Mortality (D), no. of bees ([1]; 400 min): 9
Knockdown (K), no. of bees ([1]; 410 min): 0
Mortality (D), no. of bees ([1]; 410 min): 9
Knockdown (K), no. of bees ([1]; 420 min): 0
Mortality (D), no. of bees ([1]; 420 min): 9
Knockdown (K), no. of bees ([1]; 450 min): 0
Mortality (D), no. of bees ([1]; 450 min): 9
Mortality (D), no. of bees ([1]; 480 min): 10D
mortality ([1]; by 480 MAT, 0.05% w/v a.i.): 100%

CN/C(=N\[N+](=O)[O-])NCc1cnc(Cl)s1 [Clothianidin]
% Reduction from pre-treatment count, Mean of plots, 1 DAT ([2]; mean of plots 1-4): 54.65%
% Reduction from pre-treatment count, Mean of plots, 2 DAT ([2]; mean of plots 1-4): 77.18%
% Reduction from pre-treatment count, Mean of plots, 5 DAT ([2]; mean of plots 1-4): 85.08a, b %
% Reduction from pre-treatment count, Mean of plots, 6 DAT ([2]; mean of plots 1-4): 84.83%
% Reduction from pre-treatment count, Mean of plots, 7 DAT ([2]; mean of plots 1-4): 77.88%
% Reduction from pre-treatment count, Mean of plots, 14 DAT ([2]; mean of plots 1-4): 82.08%
% Reduction from pre-treatment count (mean of 3 plants), 2 DAT ([2]; per plot, single spray): 55.1% and 92.9% and 64.4% and 96.3%
% Reduction from pre-treatment count (mean of 3 plants), 5 DAT ([2]; per plot, single spray): 75.0% and 78.6% and 97.8% and 88.9%
% Reduction from pre-treatment count (mean of 3 plants), 6 DAT ([2]; per plot, single spray): 84.6% and 64.3% and 97.8% and 92.6%
% Reduction from pre-treatment count (mean of 3 plants), 14 DAT ([2]; per plot, single spray): 97.8% and 78.6% and 77.8% and 74.1%
